tested on: 8XTBD luciferase reporter (YAP reporter) in HEK293T cells; test: YAP Reporter Assay; format: cell-based; conditions: Homo sapiens, HEK-293T; HEK293T cells stably transfected with 8XTBD luciferase reporter and pRLTK; 24-hr incubation; top concentration 3 μM; read-out: Firefly Luciferase IC50
Summary of the method: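 Dual-luciferase read-out after 24 h compound exposure at 37° C, 5% CO2; IC50 and maximum inhibition given separately for 8XTBD-firefly and TK-renilla signals. Stable HEK293T reporter cells, 3×10^3/well, received 10-point 1:3 series starting 3 μM final, in quadruplicate.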

| SMILES | IC50 [nM] |
| --- | --- |
| COc1cc(-c2ccc(C(F)(F)F)cc2)c2ncc(C(=O)NC(CO)c3ccccn3)cc2c1 (stereo not drawn) [Compound 105, N-[2-hydroxy-1-(2-pyridyl)ethyl]-6-methoxy-8-[4-(trifluoromethyl)phenyl]quinoline-3-carboxamide] | < 100 |
| O=C(NC1(c2ccccc2)CC1)c1ccc2c(-c3ccc(C(F)(F)F)cc3)cccc2c1 [Compound 121, N-(1-phenylcyclopropyl)-5-[4-(trifluoromethyl)phenyl]naphthalene-2-carboxamide] | < 100 |
| O=C(O)c1cnc2c(-c3ccc(C(F)(F)F)cc3)cc(F)c(F)c2c1 [Compound 328, 5,6-difluoro-8-(4-(trifluoromethyl)phenyl)quinoline-3-carboxylic Acid] | < 100 |
| N#C/C=C/CCNC(=O)c1ccc2c(-c3ccc(C(F)(F)F)cc3)cccc2c1 [Compound 217, N-[(E)-4-cyanobut-3-enyl]-5-[4-(trifluoromethyl)phenyl]naphthalene-2-carboxamide] | < 100 |
| N#Cc1nccc(CNC(=O)c2ccc3c(-c4ccc(C(F)(F)F)cc4)cccc3c2)n1 [Compound 179, N-((2-cyanopyrimidin-4-yl)methyl)-5-(4-(trifluoromethyl)phenyl)-2-naphthamide] | < 100 |
| C[C@@H](NC(=O)c1ccc2c(-c3ccc(C(F)(F)F)cc3)cccc2c1)C(N)=O [Compound 258, (R)—N-(1-amino-1-oxopropan-2-yl)-5-(4-(trifluoromethyl)phenyl)-2-naphthamide] | 100 to 1000 |
| CC(=O)N(C)c1cc(-c2ccc(C(F)(F)F)cc2)c2ccc(C(=O)NC(C)C)cc2c1 [Compound 51, N-isopropyl-7-(N-methylacetamido)-5-(4-(trifluoromethyl)phenyl)-2-naphthamide] | 100 to 1000 |
| CCN1CC([C@H](C)NC(=O)c2ccc3c(-c4ccc(C(F)(F)F)cc4)cccc3c2)C1 [Compound 149, N-[(1S)-1-(1-Ethylazetidin-3-yl)ethyl]-5-[4-(trifluoromethyl)phenyl]naphthalene-2-carboxamide] | 100 to 1000 |
| COC[C@H](C)NC(=O)c1cnc2c(-c3ccc(C(F)(F)F)cc3)cc(OC)cc2c1 [Compound 109, 6-methoxy-N-[(1S)-2-methoxy-1-methyl-ethyl]-8-[4-(trifluoromethyl)phenyl]quinoline-3-carboxamide] | < 100 |
| C[C@H](CO)NC(=O)c1cnc2c(-c3ccc(C(F)(F)F)cc3)cccc2n1 [Compound 267, (R)—N-(1-hydroxypropan-2-yl)-5-(4-(trifluoromethyl)phenyl)quinoxaline-2-carboxamide] | 100 to 1000 |
| Cn1cc(-c2ccc(C(F)(F)F)cc2)c2ccc(C(=O)O)cc2c1=O [Compound 337, 2-methyl-1-oxo-4-[4-(trifluoromethyl)phenyl]isoquinoline-7-carboxylic Acid] | 100 to 1000 |
| COC[C@@H](C)NC(=O)c1cnc2c(-c3ccc(C(F)(F)F)cc3)cccc2c1 [Compound 100, (R)—N-(1-methoxypropan-2-yl)-8-(4-(trifluoromethyl)phenyl)quinoline-3-carboxamide] | 100 to 1000 |
| C[C@@H](NC(=O)c1ccc2c(-c3ccc(C(F)(F)F)cc3)cccc2c1)C1CN(CCF)C1 [Compound 144, (R)—N-(1-(1-(2-fluoroethyl)azetidin-3-yl)ethyl)-5-(4-(trifluoromethyl)phenyl)-2-naphthamide] | 100 to 1000 |
| CC(C)NC(=O)c1ccc2c(-c3ccc(C(F)(F)F)cc3)cn3ccnc3c2c1 [Compound 299, N-Isopropyl-6-(4-(trifluoromethyl)phenyl)imidazo[2,1-a]isoquinoline-9-carboxamide] | 100 to 1000 |
| O=C(NCc1cccc(F)n1)c1ccc2c(-c3ccc(C(F)(F)F)cc3)cccc2c1 [Compound 190, N-((6-fluoropyridin-2-yl)methyl)-5-(4-(trifluoromethyl)phenyl)-2-naphthamide] | 100 to 1000 |
| CNCCNC(=O)c1ccc2c(-c3ccc(C(F)(F)F)cc3)cccc2c1 [Compound 124, N-(2-(methylamino)ethyl)-5-(4-(trifluoromethyl)phenyl)-2-naphthamide] | 100 to 1000 |
| CSc1ccc(-c2ccc(C(F)(F)F)cc2)c2ccc(C(=O)NC(C)C)cc12 [Compound 18, N-isopropyl-8-methylsulfanyl-5-[4-(trifluoromethyl)phenyl]naphthalene-2-carboxamide] | < 100 |
| CC(C)NC(=O)c1ccc2c(-c3ccc(C(F)(F)F)cc3)ccc(Cl)c2c1 [Compound 13, 8-chloro-N-isopropyl-5-(4-(trifluoromethyl)phenyl)-2-naphthamide] | < 100 |
| O=C(NC1(c2ccccn2)CC1)c1ccc2c(-c3ccc(C(F)(F)F)cc3)cccc2c1 [Compound 250, N-(1-(pyridin-2-yl)cyclopropyl)-5-(4-(trifluoromethyl)phenyl)-2-naphthamide] | 100 to 1000 |
| CS(=O)(=O)/C=C/CCNC(=O)c1ccc2c(-c3ccc(C(F)(F)F)cc3)cccc2c1 [Compound 311, (E)-N-(4-(Methylsulfonyl)but-3-en-1-yl)-5-(4-(trifluoromethyl)phenyl)-2-naphthamide] | < 100 |

| SMILES | IC50 [nM] |
| --- | --- |
| COc1cc(CNC(=O)c2ccc3c(-c4ccc(C(F)(F)F)cc4)cccc3c2)ccn1 [Compound 210, N-((2-methoxypyridin-4-yl)methyl)-5-(4-(trifluoromethyl)phenyl)-2-naphthamide] | 100 to 1000 |
| NCCOCCOCCNC(=O)c1ccc2c(-c3ccc(C(F)(F)F)cc3)cccc2c1 [Compound 50, N-(2-(2-(2-aminoethoxy)ethoxy)ethyl)-5-(4-(trifluoromethyl)phenyl)-2-naphthamide] | 100 to 1000 |
| COCC(=O)NCCOCCOCCNC(=O)c1ccc2c(-c3ccc(C(F)(F)F)cc3)cccc2c1 [Compound 76, N-(4-oxo-2,8,11-trioxa-5-azatridecan-13-yl)-5-(4-(trifluoromethyl)phenyl)-2-naphthamide] | 100 to 1000 |
| CCNS(=O)(=O)c1ccc2c(-c3ccc(C(F)(F)F)cc3)cccc2c1 [Compound 5, N-ethyl-5-(4-(trifluoromethyl)phenyl)naphthalene-2-sulfonamide] | < 100 |
| C[C@@H](CCO)NC(=O)c1ccc2c(-c3ccc(C(F)(F)F)cc3)cccc2c1 [Compound 166, N-[(1S)-3-hydroxy-1-methyl-propyl]-5-[4-(trifluoromethyl)phenyl]naphthalene-2-carboxamide] | < 100 |
| O=C(O)/C=C/CCNC(=O)c1ccc2c(-c3ccc(C(F)(F)F)cc3)cccc2c1 [Compound 209, (E)-5-[[5-[4-(trifluoromethyl)phenyl]naphthalene-2-carbonyl]amino]pent-2-enoic Acid] | 1000 to 3000 |
| C[C@@H](CCN)NC(=O)c1ccc2c(-c3ccc(C(F)(F)F)cc3)cccc2c1 [Compound 168, (S)—N-(4-aminobutan-2-yl)-5-(4-(trifluoromethyl)phenyl)-2-naphthamide] | < 100 |
| C[C@H](NC(=O)c1ccc2c(-c3ccc(C(F)(F)F)cc3)cccc2n1)c1ccccn1 [Compound 244, (S)—N-(1-(Pyridin-2-yl)ethyl)-5-(4-(trifluoromethyl)phenyl)quinoline-2-carboxamide] | < 100 |
| C[C@H](NC(=O)c1ccc2c(-c3ccc(C(F)(F)F)cc3)cccc2c1)c1cccc(N(C)C)n1 [Compound 287, (S)—N-(1-(6-(dimethylamino)pyridin-2-yl)ethyl)-5-(4-(trifluoromethyl)phenyl)-2-naphthamide] | 100 to 1000 |
| CC(C)N1CC([C@H](C)NC(=O)c2ccc3c(-c4ccc(C(F)(F)F)cc4)cccc3c2)C1 [Compound 143, N-[(1S)-1-(1-isopropylazetidin-3-yl)ethyl]-5-[4-(trifluoromethyl)phenyl]naphthalene-2-carboxamide] | 1000 to 3000 |
| C[C@@H](NC(=O)c1ccc2c(-c3ccc(C(F)(F)F)cc3)cccc2c1)C1CN(CC(F)F)C1 [Compound 137, (R)—N-(1-(1-(2,2-difluoroethyl)azetidin-3-yl)ethyl)-5-(4-(trifluoromethyl)phenyl)-2-naphthamide] | 100 to 1000 |
| COCCOc1cccc(CNC(=O)c2ccc3c(-c4ccc(C(F)(F)F)cc4)cccc3c2)c1 [Compound 208, N-(3-(2-methoxyethoxy)benzyl)-5-(4-(trifluoromethyl)phenyl)-2-naphthamide] | < 100 |
| C[C@@H](NC(=O)c1ccc2c(-c3ccc(C(F)(F)F)cc3)cccc2c1)c1nnnn1C [Compound 281, (R)—N-(1-(1-methyl-1H-tetrazol-5-yl)ethyl)-5-(4-(trifluoromethyl)phenyl)-2-naphthamide] | 100 to 1000 |
| C[C@@H](CO)NC(=O)c1ccc2c(-c3ccc(C(F)(F)F)cc3)cccc2c1 [Compound 84, (S)—N-(1-hydroxypropan-2-yl)-5-(4-(trifluoromethyl)phenyl)-2-naphthamide] | < 100 |
| COC[C@@H](C)NC(=O)c1ccc2c(-c3ccc(C(F)(F)F)cc3)cccc2c1 [Compound 93, (R)—N-(1-methoxypropan-2-yl)-5-(4-(trifluoromethyl)phenyl)-2-naphthamide] | < 100 |
| C#CCCNC(=O)c1ccc2c(-c3ccc(C(F)(F)F)cc3)cccc2c1 [Compound 112, N-(but-3-yn-1-yl)-5-(4-(trifluoromethyl)phenyl)-2-naphthamide] | < 100 |
| O=C(NCc1ccnc(COc2c(F)cccc2F)n1)c1ccc2c(-c3ccc(C(F)(F)F)cc3)cccc2c1 [Compound 172, N-((2-((2,6-difluorophenoxy)methyl)pyrimidin-4-yl)methyl)-5-(4-(trifluoromethyl)phenyl)-2-naphthamide] | 1000 to 3000 |
| COCCOCCNC(=O)c1ccc2c(-c3ccc(C(F)(F)F)cc3)cccc2c1 [Compound 57, N-(2-(2-methoxyethoxy)ethyl)-5-(4-(trifluoromethyl)phenyl)-2-naphthamide] | 100 to 1000 |
| C[C@@H](NC(=O)c1ccc2c(-c3ccc(C(F)(F)F)cc3)cccc2c1)c1cc(N)ccn1 [Compound 213, (R)—N-(1-(4-aminopyridin-2-yl)ethyl)-5-(4-(trifluoromethyl)phenyl)-2-naphthamide] | 100 to 1000 |

Reference: US11866431B2, “Bicyclic compounds” (Vivace Therapeutics, Inc., priority 2018, dated 2024)
